According to patent US20160046656A1, “NOVEL PHYTOSPHINGOSINE-1-PHOSPHATE DERIVATIVE, PREPARATION METHOD THEREFOR, AND COMPOSITION FOR PREVENTING AND TREATING HAIR LOSS OR FOR GROWING HAIR COMPRISING SAME” (PHYTOS CO., LTD., priority 2013, published 2016):

What was measured:
C3H mice = test: Hair growth test using C3H mice; type: in vivo, mouse; conditions: for effects on hair growth compared to positive control group: 0.01 weight % solution once a day vs 3% minoxidil preparation (Mynoxyl)
Experimental: A 6-week C3H mouse was purchased, and the hair on a dorsal part of the mouse was partially removed. Then, hair removal cream was applied to the dorsal part to completely remove the existing hair. A mouse of which the hair was not completely removed was excluded from the test. After finishing the hair removal, 5 mice were randomly bred per cage, and a total of 5 cages were used.
The mice were left one day or so after finishing depilation, and a test compound, which was prepared by dissolving O-C-P1P of Example 4 and N-C-P1P of Example 5 in a mixed solution of ethanol and ethoxydiglycol (9:1, v/v) to a concentration of 0.01 weight %, was applied once a day to the area from which the hair was removed. A negative control group was prepared by applying a mixed solution of ethanol and ethoxydiglycol without using the test compound, and a positive control group was 3% minoxidil preparation (Mynoxyl, Hyundai Pharm). After applying samples to the area from which the hair was removed, images of the area captured at the 14th and 18th days are shown in FIG. 3. […]

human fibroblasts = test: Cell proliferation by MTT assay; type: cell-based; conditions: for Cell Viability (%): MTT, 0 = 100; for cell proliferation, result in words: summary of Table 4
Experimental: (§1) To measure anti-wrinkle effects of N-C-P1P and O-C-P1P, effects of human fibroblasts on cell proliferation were measured via an MTT (3-[4,5-dimethylthiazol-2-yl]-2,5-diphenyltetrazolium bromide) assay. To observe collagen synthesis, procollagent type I, which is produced in human fibroblasts (e.g., dermal cells), were measured.
To measure cell proliferation, human fibroblasts were cultured for 24 hours in a Dulbecco's modified eagle medium (DMEM) medium supplemented with 10% FBS and 100 unit/mL of penicillin/streptomycin. The culture circumstances comprising culturing in a 5% CO2 incubator maintained at a temperature of 37° c. Then, after removing the medium therefrom, N-C-P1P and O-C-P1P were added thereto at different concentrations. The MTT assay was performed to measure effects of N-C-P1P and O-C-P1P on cell proliferation, and the results are summarized in Table 4.

procollagen type I = test: Collagen synthesis, procollagen type I C-peptide EIA kit; type: cell-based; conditions: human fibroblasts; for Collagen synthesis (%): 24 hours, serum free medium, 0 = 100; for synthesis of collagen, result in words: summary of Table 5
Experimental: as §1
To measure collagen synthesis, the human fibroblasts (e.g., dermal cells) were cultured in the same conditions as above for 24 hours. After removing the medium therefrom, a new serum free medium was substituted. […] The culture medium was used to measure amounts of synthesized collagen by using a procollagen type I C-peptide EIA kit, and the results measured therefrom are shown in Table 5 below.

[1] = 0.01 weight % in ethanol/ethoxydiglycol (9:1, v/v), applied once a day to depilated area, images at 14th and 18th days, FIG. 3

SMILES	effects on hair growth compared to negative control group (C3H mice; [1])	effects on hair growth compared to positive control group (C3H mice; FIG. 3)	Cell Viability (%) (human fibroblasts; concentration 0.002%)	Cell Viability (%) (human fibroblasts; concentration 0.004%)	Cell Viability (%) (human fibroblasts; concentration 0.008%)	Cell Viability (%) (human fibroblasts; concentration 0.016%)	cell proliferation, result in words (human fibroblasts)	Collagen synthesis (%) (procollagen type I; concentration 0.1 μM)	Collagen synthesis (%) (procollagen type I; concentration 1 μM)	synthesis of collagen, result in words (procollagen type I)	effects on hair growth compared to negative control group (C3H mice; 0.005, 0.01 and 0.02 weight % solutions, images at 13th and 17th days, FIG. 5)	difference in effects on hair growth among concentrations (C3H mice; 0.005 weight %, 0.01 weight % and 0.02 weight %, FIG. 5)	effects on hair growth compared to negative control group (C3H mice; liposomes containing O-C-P1P of Examples 6 and 7, once a day for 3 weeks, FIG. 4)	concentration giving the same effects on hair growth, times as low as the concentration of minoxidil (C3H mice; vs 3% minoxidil preparation)
CCCCCCCCCCCCCC[C@@H](O)[C@@H](O)[C@@H]1COP(=O)(O)N1 [N-C-P1P, N-cyclic phytospingosine-1-phosphate]	significantly better	quite less	120%	110%	110%	125%	promoting cell proliferation	110%	125%	promoting synthesis of collagen	–	–	–	–
CCCCCCCCCCCCCC[C@@H](O)[C@H]1OP(=O)(O)OC[C@@H]1N [O-C-P1P, O-cyclic phytospingosine-1-phosphate]	rapid growth of hair	effects on faster hair growth were shown better	128%	135%	143%	160%	promoting cell proliferation	120%	140%	promoting synthesis of collagen	significant effects on hair growth	no significant different	significant effects on hair growth	about 300 times
